Values joined by “and” are separate entries in the source; they are usually repeats but may differ in a detail not shown here. Identical values can stand only once.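 How tested: cells in 96-well plates exposed to compound for 48 hours at five concentrations. GI50 = concentration required for 50% inhibition of growth. TGI: concentration producing complete growth inhibition.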
Tests used:
Experiment in all cases: NCI tumour cell line growth inhibition, 48 h
BT-549 breast = test system: BT-549 breast
MDA-N = test system: MDA-N
LXFL 529 NSCLC = test system: LXFL 529 NSCLC
SNB-78 CNS = test system: SNB-78 CNS
DMS 114 small cell lung = test system: DMS 114 small cell lung
HOP-18 NSCLC = test system: HOP-18 NSCLC
RXF-631 renal = test system: RXF-631 renal
HS 578T breast = test system: HS 578T breast
XF 498 CNS = test system: XF 498 CNS
P388 leukemia = test system: P388 leukemia
P388/ADR leukemia = test system: P388/ADR leukemia

SMILES | TGI (BT-549 breast) [µM] | TGI (LXFL 529 NSCLC) [µM] | TGI (SNB-78 CNS) [µM] | TGI (DMS 114 small cell lung) [µM] | TGI (HOP-18 NSCLC) | TGI (RXF-631 renal) | TGI (HS 578T breast) [µM] | TGI (XF 498 CNS) | further results
O=C(O)CC(CC(=O)O)n1cccc1 | > 100 | – | – | – | – | – | – | – | TGI (MDA-N): > 100 µM
O=[N+]([O-])C(=C1c2ccccc2-c2ccccc21)[N+](=O)[O-] | – | > 100 | > 100 | – | – | – | – | – | –
N/N=C1\C(=O)N(c2ccc(Cl)c(Cl)c2)C(=O)C1C(=O)Nc1ccc(Cl)c(Cl)c1 (stereo unspecified) | – | > 100 | 79.5 | > 100 | > 100 µM | > 100 µM | – | – | –
CN(C)Cc1c[nH]c2nc[nH]c(=O)c12 | > 100 | – | – | – | – | – | > 100 | – | TGI (MDA-N): 67.7 µM
CN(COC(=O)C(C)(C)C)c1nc(N(C)COC(=O)C(C)(C)C)nc(N(C)COC(=O)C(C)(C)C)n1 | > 100 | – | – | – | – | – | > 100 | – | TGI (MDA-N): 80.3 µM
NNC(=O)C(=O)N/N=C1\CCCC1C(=O)CCC(=O)Nc1cccc(Cl)c1 (stereo unspecified) | – | > 100 | > 100 | > 100 | > 100 µM | > 100 µM | – | > 100 µM | –
Nc1ncnc2c1ncn2C1(CO)OC(CO)C(O)C1O (stereo unspecified) | – | > 100 | > 100 | > 100 | > 100 µM | > 100 µM | – | > 100 µM | –
O=C1OC(=O)c2c1cc1cc3c(cc1c2-c1ccc2c(c1)OCO2)OCO3 | > 100 | – | – | – | – | – | – | – | TGI (MDA-N): > 100 µM
C[C@H]1CCC/C=C/[C@@H]2C[C@H](O)C[C@H]2[C@H](O)C(O)C(O)C(=O)O1 (stereo partly specified) | > 100 | – | – | – | – | – | > 100 | – | GI50 (BT-549 breast): 2.72 µM; GI50 (HS 578T breast): 0.702 µM; GI50 (MDA-N): 4.53 µM; TGI (MDA-N): > 100 µM
Cc1ccc(C)c(NC(=O)C(=O)C(C2C(C)CC(=O)C2CC(=O)O)[N+](=O)[O-])c1 (stereo unspecified) | – | > 100 | > 100 | > 100 | – | > 100 µM | – | > 100 µM | –
CCCOC(=O)C1C(c2ccc(OC)cc2)NC(c2ccc(OC)cc2)C(C(=O)OCCC)S1(=O)=O (stereo unspecified) | – | > 100 | > 100 | > 100 | – | > 100 µM | – | – | GI50 (DMS 114 small cell lung): > 100 µM; GI50 (LXFL 529 NSCLC): > 100 µM; GI50 (RXF-631 renal): > 100 µM; GI50 (SNB-78 CNS): > 100 µM
Oc1ccc(Br)cc1C=Nc1ccc(Oc2ccc(N=Cc3cc(Br)ccc3O)cc2)cc1 | – | > 19.6 | – | > 19.6 | > 19.6 µM | – | – | – | –
O=C1/C(=C/c2ccccc2)CN(C(=O)/C=C/c2ccccc2)C/C1=C\c1ccccc1 | 4.7 | 29.1 | > 73 | > 43.8 | 97.6 µM | > 100 µM | > 100 | 38 µM | TGI (MDA-N): 3.43 µM
Cc1ncc2c(n1)CCC1=C2OS(=O)(=O)CC1N(C)C (stereo unspecified) | > 100 | – | – | – | – | – | > 100 | – | TGI (MDA-N): > 100 µM
COc1ccc(-c2cc(-c3ccco3)c(C#N)c(=O)n2C2OC(COC(C)=O)C(OC(C)=O)C(OC(C)=O)C2OC(C)=O)cc1 (stereo unspecified) | – | 59.6 | > 100 | > 100 | > 100 µM and 64.2 µM | > 100 µM and 46.5 µM | – | – | GI50 (DMS 114 small cell lung): > 100 µM and 21.6 µM; GI50 (RXF-631 renal): > 100 µM and 14.3 µM
CCOC(=O)C(c1ccsc1)P(=O)(OCC)OCC (stereo unspecified) | – | 26.7 | 76.9 | 29 | 43.8 µM | – | – | 38.4 µM | –
CC(C)C[C@H](NC(=O)[C@@H](N)Cc1cccc2ccccc12)B(O)O | – | – | – | – | – | – | – | – | GI50 (BT-549 breast): 0.87 µM; GI50 (MDA-N): < 0.01 µM
CC(C)OC(=O)NNc1c(Cl)cc(Cl)cc1Cl | > 100 | – | – | – | – | – | > 100 | – | TGI (MDA-N): > 100 µM
CC(C)CC1CC2C(=O)N(c3ccccc3)C(=O)C2c2[nH]c3ccccc3c21 (stereo unspecified) | – | > 100 | > 100 | 52.7 | 31.4 µM | 51.8 µM | – | 48.6 µM | –
C=CCN=C1NC(=O)C(CC(=O)Nc2ccc([N+](=O)[O-])cc2[N+](=O)[O-])S1 (stereo unspecified) | – | > 100 | > 100 | > 100 | > 100 µM | > 100 µM | – | > 100 µM | –
COC(=O)N1C=CC2=C(C)C3Nc4ccccc4C3C(C)=C2C1 (stereo unspecified) | – | 9.94 | 3.66 | > 100 | – | – | – | 7.87 µM | –
CC1(C)CCOC(Sc2ccccc2)C1 (stereo unspecified) | – | > 100 | > 100 | > 100 | – | – | – | > 100 µM | –
CCCCCCCCCCCCNC(=S)OCCCC | – | > 100 | > 100 | > 100 | > 100 µM | > 100 µM | – | > 100 µM | –
CC1Nc2ccccc2NC1C=C(C#N)C#N (stereo unspecified) | – | 25.7 | 36.4 | 40.7 | 40.1 µM | 24.4 µM | – | 31.1 µM | –
CN1C=C(C(N)=O)Cc2ccsc21 | – | > 100 | > 100 | > 100 | > 100 µM | – | – | – | –

SMILES | TGI (BT-549 breast) [µM] | TGI (LXFL 529 NSCLC) [µM] | TGI (SNB-78 CNS) [µM] | TGI (DMS 114 small cell lung) [µM] | TGI (HOP-18 NSCLC) | TGI (RXF-631 renal) | TGI (HS 578T breast) [µM] | TGI (XF 498 CNS) | further results
O=C1c2ccccc2C(=O)N1CCN(CCN1C(=O)c2ccccc2C1=O)Cc1ccccc1 | – | > 100 | > 100 | > 100 | – | – | – | > 100 µM | –
CCOC(=O)c1ccc(N[C@@H]2c3cc4c(cc3C(c3cc(OC)c(O)c(OC)c3)[C@H]3C(=O)OCC32)OCO4)cc1 (stereo partly specified) | 4.58 | 34.7 | 66.2 | 3.65 | – | – | – | 0.979 µM and 5.6 µM | GI50 (DMS 114 small cell lung): 0.326 µM; TGI (P388 leukemia): 0.0208 µM; TGI (P388/ADR leukemia): 0.0959 µM; GI50 (XF 498 CNS): 0.418 µM
O=C1CC2=CCCC2O1 (stereo unspecified) | – | > 100 | > 100 | > 100 | – | – | – | > 100 µM | –
O=c1oc2cc(O)ccc2cc1-c1nc2ccccc2o1 | 54 | – | – | – | – | – | > 100 | – | TGI (MDA-N): > 100 µM
NNC(=S)N/N=C(\c1nc2ccc(Cl)cc2[nH]c1=O)C(O)c1cccc([N+](=O)[O-])c1 (stereo unspecified) | – | > 100 | > 100 | > 24.5 | > 100 µM | > 100 µM | – | > 100 µM | –
CC[C@@]1(O)C(=O)OCc2c1cc1n(c2=O)Cc2cc3c(N)c(OC)ccc3nc2-1 | – | > 25.6 | > 100 | 0.189 | > 100 µM | 2.74 µM | – | 4.14 µM | GI50 (DMS 114 small cell lung): 0.0252 µM; GI50 (HOP-18 NSCLC): 0.14 µM; GI50 (LXFL 529 NSCLC): 0.953 µM; GI50 (RXF-631 renal): 0.176 µM; GI50 (SNB-78 CNS): 1.22 µM; GI50 (XF 498 CNS): 0.389 µM
Cc1ccccc1-c1cc(=O)c2cc(C)c(C)c(C(=O)O)c2o1 | – | > 100 | > 100 | > 100 | > 100 µM | > 100 µM | – | > 100 µM | –
COc1ccc(C2=NC(CO)[C@H](c3ccccc3)O2)cc1OC (stereo partly specified) | – | > 100 | – | > 100 | – | > 100 µM | – | > 100 µM | –
CN(C)Cc1nsc(N(C)C)n1 | > 100 | – | – | – | – | – | > 100 | – | TGI (MDA-N): > 100 µM
NC(=O)c1c(-c2ccccc2)c(-c2ccccc2)cc2c(=O)c3ccccc3[nH]c12 | – | 32.7 | 54.1 | 56.8 | – | 87.1 µM | – | 36.6 µM | –
CC12CC(Br)(Br)C(=O)C3C1CCCC32 | 5.04 | 6.83 | 44.8 | 16.2 | 22.6 µM | – | 45.2 | 21 µM | TGI (MDA-N): 9.66 µM
O=C1C=C(c2ccccc2)NC1(c1ccccc1)c1cc(-c2ccccc2)[nH]c1-c1ccccc1 (stereo unspecified) | – | > 100 | > 100 | > 100 | > 100 µM | > 100 µM | – | – | –
CCOC(=O)N1C/C(=C\c2ccc(N(C)C)cc2)C(=O)/C(=C/c2ccc(N(C)C)cc2)C1 | – | > 100 | > 100 | > 100 | > 100 µM | > 100 µM | – | – | –
N#C/C(=C\c1ccccn1)c1nc2ccccc2o1 | 36.1 | – | – | – | – | – | > 100 | – | GI50 (BT-549 breast): 17.3 µM; GI50 (HS 578T breast): 35.1 µM
CC1=C(C(=O)Nc2cc(F)c(F)cc2F)C(c2ccc(N(C)C)cc2)C(C(=O)Nc2cc(F)c(F)cc2F)=C(C)N1 | – | 63 | 65.4 | 62.8 | – | 86.2 µM | > 100 | – | GI50 (HS 578T breast): 28.2 µM
O=C1C2C3C=CC(C2C(=O)N1CN1CCOCC1)C1C2C(=O)N(CN4CCOCC4)C(=O)C2C31 (stereo unspecified) | > 100 | 36.1 | > 100 | 34.1 | 60.2 µM | 74.9 µM | > 100 | – | TGI (MDA-N): > 100 µM
COc1ccc(C)cc1-c1ccc(-c2cc(C)ccc2OC)o1 | – | > 100 | > 100 | > 100 | – | > 100 µM | – | – | –
Cc1ccc(S(=O)(=O)NC(=O)Nc2ncn[nH]2)cc1 | > 100 | – | – | – | – | – | > 100 | – | TGI (MDA-N): > 100 µM
C=CCC(NCc1ccccc1)c1cn(C(=O)OCC)c2ccccc12 (stereo unspecified) | 46.9 | – | – | – | – | – | 63.8 | – | GI50 (BT-549 breast): 21.3 µM; GI50 (HS 578T breast): 20 µM
CN(C)c1ccc(-c2nc(N)nc3c2CCCC3)cc1 | – | > 100 | > 100 | > 100 | – | – | – | 60.5 µM | –
COc1cc(Br)c(C=Nc2cccc3ccc(OS(=O)(=O)c4ccc([N+](=O)[O-])cc4)cc23)cc1OC | – | > 100 | > 100 | > 100 | – | – | – | – | –
COc1ccc(C(=O)c2no[n+]([O-])c2C(=O)c2ccc(OC)cc2)cc1 | 17.2 | – | – | – | – | – | 51.4 | – | GI50 (BT-549 breast): 4.84 µM; GI50 (HS 578T breast): 17.8 µM
O=S(=O)(c1ccccc1)C1(C2(S(=O)(=O)c3ccccc3)CCN=N2)CCN=N1 (stereo unspecified) | – | > 100 | – | > 100 | – | – | – | > 100 µM | –
O=C1C[C@@H]2[C@@H](C=CC23CCCC3)N1O | – | > 100 | > 100 | > 100 | > 100 µM | – | – | – | –
COc1cccc(C2=C(c3cn(C)c4c(C)cccc34)C(=O)NC2=O)c1 | > 25 | – | – | – | – | – | > 25 | – | GI50 (BT-549 breast): > 25 µM; GI50 (HS 578T breast): 5.93 µM

Source: PubChem BioAssay (NCI)
